Data: patent US20210037829A1, “ANTIMICROBIAL COMPOSITIONS FOR SURGICAL APPLICATIONS” (TELEFLEX MEDICAL INCORPORATED, priority 2015, published 2021)
“And” between values parts separate entries of the source, which are not always exact repeats. Equal values may be shown once.

Assays:
Assay in all cases: Time to Kill
Assay type in all cases: cell-based
[1] = tested on: Candida albicans; settings: 128 ppm; for Exposure time to complete kill: C. albicans, challenge 10^4-10^5 CFU/mL; for Number of Microbial Colonies: Candida albicans, replicates 1-5
Method: (§1) Alexidine and Chlorhexidine, both at a concentration of 128 ppm were exposed to a Gram positive bacteria (Staphylococcus aureus), a Gram negative bacteria (Pseudomonas aeruginosa), and a fungus (Candida albicans). The challenge concentration for each organism was 10^4-10^5 CFU/mL, and the exposure time varied from 0.5-60 minutes. […] Complete kill of all three organisms was observed within 0.5-1 minute of Alexidine exposure.

[2] = tested on: Staphylococcus aureus; settings: 128 ppm; for Exposure time to complete kill: S. aureus, challenge 10^4-10^5 CFU/mL; for Number of Microbial Colonies: Staphylococcus aureus, replicates 1-5
Method: as §1

[3] = tested on: Pseudomonas aeruginosa; settings: 128 ppm; for Exposure time to complete kill: P. aeruginosa, challenge 10^4-10^5 CFU/mL; for Number of Microbial Colonies: Pseudomonas aeruginosa, replicates 1-5
Method: as §1

[4] = exposure 0.5 minutes, TNTC = too numerous to count
[5] = exposure 1 minute, TNTC = too numerous to count
[6] = exposure 5 minutes, TNTC = too numerous to count

Row | Structure (SMILES) | Exposure time to complete kill [1] [min] | Number of Microbial Colonies [1, 4] | Number of Microbial Colonies [1, 5] | Number of Microbial Colonies [1, 6] | Number of Microbial Colonies ([1]; exposure 60 minutes) | Exposure time to complete kill [2] [min] | Number of Microbial Colonies [2, 4] | Number of Microbial Colonies [2, 5] | Number of Microbial Colonies [2, 6] | Number of Microbial Colonies ([2]; exposure 60 minutes) | Exposure time to complete kill [3] [min] | Number of Microbial Colonies ([3]; exposure 0.5 minutes) | Number of Microbial Colonies ([3]; exposure 1 minute) | Number of Microbial Colonies ([3]; exposure 5 minutes) | Number of Microbial Colonies ([3]; exposure 60 minutes)
1 | [H]/N=C(\N/C(=N/[H])NCCCCCCNC(=N)NC(=N)Nc1ccc(Cl)cc1)Nc1ccc(Cl)cc1 [Chlorhexidine] | 60 | TNTC | TNTC | 30 and 20 and 32 and 24 and TNTC | 0 | 60 | TNTC | TNTC | TNTC | 1 (2×) and 0 (3×) | 5 | 7 and 4 and 5 and 2 and 1 | 1 | 0 | 0
2 | CCCCC(CC)CNC(=N)NC(=N)NCCCCCCNC(=N)NC(=N)NCC(CC)CCCC (stereo not drawn) [Alexidine] | 0.5 to 1 | 3 and 0 (4×) | 0 (4×) and 1 | 0 | 0 | 0.5 to 1 | 0 | 0 | 0 | 0 | 0.5 to 1 | 0 | 0 | 0 | 0
